Experiments:
Format in all cases: toxicity, cell-based
[1] = tested on: U2OS; assay: Incucyte cell viability with U2OS; conditions: human, 10 µM, compound concentration 10 uM
[2] = tested on: Fibroblast; assay: Incucyte cell viability with human fibroblast; conditions: 10 µM, compound concentration 10 uM
[3] = tested on: HEK-293T; assay: Incucyte cell viability with HEK293T; conditions: human, 10 µM, compound concentration 10 uM
Also: unitless GR value; below 1 slowed growth and below 0 cell loss.

SMILES	Growth Rate ([1]; 0 h, replicate number 1)	Growth Rate ([1]; 12 h, replicate number 1)	Growth Rate ([1]; 12 h, replicate number 2)	Growth Rate ([1]; 18 h, replicate number 1)	Growth Rate ([1]; 18 h, replicate number 2)	Growth Rate ([1]; 24 h, replicate number 1)	Growth Rate ([1]; 24 h, replicate number 2)	Growth Rate ([2]; 6 h, replicate number 1)	Growth Rate ([2]; 12 h, replicate number 1)	Growth Rate ([2]; 12 h, replicate number 2)	Growth Rate ([2]; 18 h, replicate number 2)	Growth Rate ([2]; 24 h, replicate number 2)	Growth Rate ([3]; 6 h, replicate number 1)	Growth Rate ([3]; 6 h, replicate number 2)	Growth Rate ([3]; 12 h, replicate number 1)	Growth Rate ([3]; 12 h, replicate number 2)	Growth Rate ([3]; 18 h, replicate number 1)	Growth Rate ([3]; 18 h, replicate number 2)	Growth Rate ([3]; 24 h, replicate number 1)	Growth Rate ([3]; 24 h, replicate number 2)	other results
CCN1CCN(Cc2ccc(NC(=O)c3ccc(C)c(Oc4ccnc5[nH]ccc45)c3)cc2C(F)(F)F)CC1.Cl.Cl.Cl.O	-0.12	0.84	0.38	0.36	0.15	0.17	0.04	-0.67	-1	0.02	-0.03	-0.05	-0.97	-0.99	-0.89	-0.8	-0.7	-0.55	-0.63	-0.43	Growth Rate ([1]; 0 h, replicate number 2): -0.97; Growth Rate ([1]; 6 h, replicate number 2): 0.57
CC1(C)C[C@@H]1C(=O)N/C(=C\CCCCSC[C@H](N)C(=O)O)C(=O)O [CILASTATIN]	–	0.97	0.74	0.9	0.82	0.9	0.79	–	–	–	–	0.83	0.74	0.55	–	0.9	–	–	–	–	Growth Rate ([1]; 0 h, replicate number 2): 0.88; Growth Rate ([1]; 6 h, replicate number 2): 0.81; Growth Rate ([2]; 0 h, replicate number 2): -0.91; Growth Rate ([2]; 6 h, replicate number 2): 0.61; Growth Rate ([3]; 0 h, replicate number 1): -0.01; Growth Rate ([3]; 0 h, replicate number 2): 0.73
Nc1c(CC(=O)O)cccc1C(=O)c1ccc(Br)cc1 [BROMFENAC]	0.27	0.79	0.95	0.86	0.92	0.74	0.95	–	–	–	–	–	–	–	–	–	–	–	0.98	–	Growth Rate ([1]; 6 h, replicate number 1): 0.2; Growth Rate ([2]; 0 h, replicate number 2): -0.66; Growth Rate ([3]; 0 h, replicate number 1): 0.43; Growth Rate ([3]; 0 h, replicate number 2): -0.53
CC/C(=C(\c1ccc(O)cc1)c1ccc(OCCN(C)C)cc1)c1ccccc1 [AFIMOXIFENE]	–	–	–	–	–	0.9	–	-0.74	–	0.3	0.13	0.18	-0.92	-0.67	-0.87	-0.46	-0.68	-0.33	-0.63	-0.26	Growth Rate ([1]; 0 h, replicate number 2): -0.96; Growth Rate ([2]; 0 h, replicate number 1): 0.22; Growth Rate ([2]; 6 h, replicate number 2): 0.4
CCCc1c(OCCCOc2ccc(OCC(=O)O)cc2)ccc(C(C)=O)c1O	–	0.84	–	–	–	–	–	0.58	0.74	0.87	–	–	–	–	–	0.94	–	0.97	–	–	Growth Rate ([1]; 6 h, replicate number 1): 0.97; Growth Rate ([2]; 0 h, replicate number 2): -0.08; Growth Rate ([2]; 18 h, replicate number 1): 0.6; Growth Rate ([2]; 24 h, replicate number 1): 0.94; Growth Rate ([3]; 0 h, replicate number 2): -0.76
Cc1ccc(NC(=O)c2ccc3c(c2)OCCO3)cc1NC(=O)c1ccc2nc(OCCN3CCCC3)ccc2c1	0.21	-0.04	0.05	-0.16	-0.04	-0.12	-0.01	-0.21	-0.3	-0.27	-0.22	-0.05	-0.91	-0.96	-0.78	-0.81	-0.56	-0.61	-0.43	-0.45	Growth Rate ([1]; 6 h, replicate number 1): 0.15; Growth Rate ([1]; 6 h, replicate number 2): 0.35; Growth Rate ([2]; 0 h, replicate number 2): -0.85; Growth Rate ([2]; 6 h, replicate number 2): -0.58; Growth Rate ([2]; 18 h, replicate number 1): -0.2; Growth Rate ([2]; 24 h, replicate number 1): -0.09
Nc1ncc2c(n1)-c1c([nH]c3ccc(C4CC4)cc13)CCCC2	-0.99	0.85	0.64	0.93	0.94	1	0.88	0.08	0.76	0.75	0.79	–	0.37	0.69	0.63	0.69	0.74	0.8	0.71	0.85	Growth Rate ([1]; 0 h, replicate number 2): 0.47; Growth Rate ([1]; 6 h, replicate number 2): -0.85; Growth Rate ([2]; 6 h, replicate number 2): 0.5
COc1c(OCCCN2CCOCC2)ccc2c1N=C(NC(=O)c1cnc(N)nc1)N1CCN=C21 [COPANLISIB]	-0.44	–	–	0.98	0.9	0.96	0.79	-0.21	0.1	-0.18	0.04	0.24	0.09	-0.34	0.15	-0.17	0.12	-0.05	0.18	-0.04	Growth Rate ([1]; 6 h, replicate number 1): 0.74; Growth Rate ([2]; 6 h, replicate number 2): -0.38; Growth Rate ([2]; 18 h, replicate number 1): 0.26; Growth Rate ([2]; 24 h, replicate number 1): 0.41; Growth Rate ([3]; 0 h, replicate number 2): -1
